Columns and labels:
[1] = target: KRas G12D (Homo sapiens (Human), UniProt P01116, G12D); experiment: KRas G12D Binding Assay (TR-FRET displacement); conditions: TR-FRET displacement of Cy5 labelled tracer, GDP-loaded KRAS G12D, 60 minute incubation at 22° C.
Description: After a 60 minute incubation at 22° C., the reaction was measured using a PerkinElmer EnVision multimode plate reader via TR-FRET dual wavelength detection, and the percent of control (POC) calculated using a ratiometric emission factor. […] The POC values were fit to a 4-parameter logistic curve and the IC50 value was determined as the concentration where the curve crosses 50 POC.

[2] = tested on: KRas G12D-mediated phosphorylation of ERK; experiment: Inhibition of KRas G12D-mediated phosphorylation of ERK in AGS cells; assay type: cell-based; conditions: Homo sapiens; AGS cells expressing G12D, 3 hours, phospho-ERK normalized to GAPDH
How it was run: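 In-cell Western: p-ERK Thr202/Tyr204 signal over GAPDH, as % of DMSO control, with IC50 from a 4-parameter curve. AGS cells seeded 40,000/well for 12-14 h, exposed to compound 3 h at 0.5% DMSO final, then formaldehyde-fixed and methanol-permeabilized.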

Sequence of KRas G12D (P01116 other isoform, or with tags, fused parts or gaps G12D): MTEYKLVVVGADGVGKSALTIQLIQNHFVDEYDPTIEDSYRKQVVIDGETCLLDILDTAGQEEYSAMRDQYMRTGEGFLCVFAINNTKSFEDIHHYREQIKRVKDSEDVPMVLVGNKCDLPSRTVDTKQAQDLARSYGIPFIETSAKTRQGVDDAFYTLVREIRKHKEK

| SMILES | IC50 [1] | IC50 [2] |
| --- | --- | --- |
| COc1ccc(OC(F)(F)F)c(-c2ncc3c(N4CC5CCC(C4)N5)nc(OC[C@@]45CCCN4C[C@H](F)C5)nc3c2F)c1 (racemic) [Example 361, 4-((1R,5S)-3,8-diazabicyclo[3.2.1]octan-3-yl)-8-fluoro-2-((2-fluorotetrahydro-1H-pyrrolizin-7a(5H)-yl)methoxy)-7-(5-methoxy-2-(trifluoromethoxy)phenyl)pyrido[4,3-d]pyrimidine (racemic, trans)] | 2700 nM | – |
| Fc1c(-c2ccccc2CC(F)(F)F)ncc2c(N3CC4CCC(C3)N4)nc(OC[C@@]34CCCN3C[C@H](F)C4)nc12 (racemic) [Example 383, 4-((1R,5S)-3,8-diazabicyclo[3.2.1]octan-3-yl)-8-fluoro-2-((2-fluorotetrahydro-1H-pyrrolizin-7a(5H)-yl)methoxy)-7-(2-(2,2,2-trifluoroethyl)phenyl)pyrido[4,3-d]pyrimidine (racemic, trans)] | 586 nM | – |
| Nc1ccc(Cl)c(F)c1-c1ncc2c(N3CC4CCC(C3)N4)nc(OC[C@@]34CCCN3C[C@H](F)C4)nc2c1F (racemic) [Example 380, 2-(4-((1R,5S)-3,8-diazabicyclo[3.2.1]octan-3-yl)-8-fluoro-2-((2-fluorotetrahydro-1H-pyrrolizin-7a(5H)-yl)methoxy)pyrido[4,3-d]pyrimidin-7-yl)-4-chloro-3-fluoroaniline bis(2,2,2-trifluoroacetate) (racemic, trans)] | 65.7 nM | > 16700 nM |
| OCC1CCC2(COc3nc(N4C[C@H]5CC[C@@H](C4)N5)c4cnc(-c5cccc6cccc(Cl)c56)c(F)c4n3)CCCN12 (stereo partly drawn) [Example 135, (7a-(((4-((1R,5S)-3,8-diazabicyclo[3.2.1]octan-3-yl)-7-(8-chloronaphthalen-1-yl)-8-fluoropyrido[4,3-d]pyrimidin-2-yl)oxy)methyl)hexahydro-1H-pyrrolizin-3-yl)methanol] | 2.1 nM | 4820 nM |
| Cc1cc2[nH]ncc2c(-c2ncc3c(N4CC5CCC(C4)N5)nc(OC[C@@]45CCCN4C[C@H](F)C5)nc3c2F)c1Cl (racemic) [Example 376, 4-((1R,5S)-3,8-diazabicyclo[3.2.1]octan-3-yl)-7-(5-chloro-6-methyl-1H-indazol-4-yl)-8-fluoro-2-((2-fluorotetrahydro-1H-pyrrolizin-7a(5H)-yl)methoxy)pyrido[4,3-d]pyrimidine (racemic, trans)] | 2.6 nM | – |
| CO[C@H]1C[C@@H](COc2nc(N3C[C@H]4CC[C@@H](C3)N4)c3cnc(-c4cccc5cccc(Cl)c45)c(F)c3n2)N(C)C1 [Example 149, 4-((1R,5S)-3,8-diazabicyclo[3.2.1]octan-3-yl)-7-(8-chloronaphthalen-1-yl)-8-fluoro-2-(((2S,4S)-4-methoxy-1-methylpyrrolidin-2-yl)methoxy)pyrido[4,3-d]pyrimidine] | 870 nM | – |
| Fc1c(-c2ccccc2C2CC2)ncc2c(N3CC4CCC(C3)N4)nc(OC[C@@]34CCCN3C[C@H](F)C4)nc12 (racemic) [Example 368, 4-((1R,5S)-3,8-diazabicyclo[3.2.1]octan-3-yl)-7-(2-cyclopropylphenyl)-8-fluoro-2-((2-fluorotetrahydro-1H-pyrrolizin-7a(5H)-yl)methoxy)pyrido[4,3-d]pyrimidine (racemic, trans)] | 208 nM | – |
| Fc1c(-c2ccccc2C2CCC2)ncc2c(N3CC4CCC(C3)N4)nc(OCC34CCCN3C[C@H](F)C4)nc12 (mixture of isomers) [Example 371, 4-((1R,5S)-3,8-diazabicyclo[3.2.1]octan-3-yl)-7-(2-cyclobutylphenyl)-8-fluoro-2-((2-fluorotetrahydro-1H-pyrrolizin-7a(5H)-yl)methoxy)pyrido[4,3-d]pyrimidine (racemic, trans)] | 394 nM | – |
| Oc1cccc(F)c1-c1ncc2c(N3CC4CCC(C3)N4)nc(OCC34CCCN3C[C@H](F)C4)nc2c1F (mixture of isomers) [Example 369, 2-(4-((1R,5S)-3,8-diazabicyclo[3.2.1]octan-3-yl)-8-fluoro-2-((2-fluorotetrahydro-1H-pyrrolizin-7a(5H)-yl)methoxy)pyrido[4,3-d]pyrimidin-7-yl)-3-fluorophenol (racemic, trans)] | 221 nM | – |
| CN(C)CCOc1nc(N2C[C@H]3CC[C@@H](C2)N3)c2cnc(-c3cc(O)cc4ccccc34)c(F)c2n1 [Example 18, 4-(4-((1R,5S)-3,8-diazabicyclo[3.2.1]octan-3-yl)-2-(2-(dimethylamino)ethoxy)-8-fluoropyrido[4,3-d]pyrimidin-7-yl)naphthalen-2-ol] | – | 3740 nM |
| CN1CCC[C@H]1COc1nc(N2CC3CCC(CO)(C2)N3)c2cnc(-c3cc(O)cc4ccccc34)c(F)c2n1 (stereo partly drawn) [Example 215, 4-(8-fluoro-4-(1-(hydroxymethyl)-3,8-diazabicyclo[3.2.1]octan-3-yl)-2-(((S)-1-methylpyrrolidin-2-yl)methoxy)pyrido[4,3-d]pyrimidin-7-yl)naphthalen-2-ol bis(2,2,2-trifluoroacetate)] | – | > 16700 nM |
| CCc1c(F)ccc2cc(O)cc(-c3ncc4c(N5C[C@H]6CC[C@@H](C5)N6)nc(OCC56CCCN5CCC6)nc4c3F)c12 [Example 314, 4-(4-((1R,5S)-3,8-diazabicyclo[3.2.1]octan-3-yl)-8-fluoro-2-((hexahydro-1H-pyrrolizin-7a-yl)methoxy)pyrido[4,3-d]pyrimidin-7-yl)-5-ethyl-6-fluoronaphthalen-2-ol] | – | 3.7 nM |
| CC(C)(C)[Si](C)(C)OCC1CCC2(COc3nc(N4C[C@H]5CC[C@@H](C4)N5)c4cnc(-c5cccc6cccc(Cl)c56)c(F)c4n3)CCCN12 (stereo partly drawn) [Example 64, 4-((1R,5S)-3,8-diazabicyclo[3.2.1]octan-3-yl)-2-((3-(((tert-butyldimethylsilyl)oxy)methyl)tetrahydro-1H-pyrrolizin-7a(5H)-yl)methoxy)-7-(8-chloronaphthalen-1-yl)-8-fluoropyrido[4,3-d]pyrimidine] | – | 3970 nM |
| Cc1cccc(-c2ncc3c(N4C[C@H]5CC[C@@H](C4)N5)nc(OCC45CCCN4CCC5)nc3c2F)c1C(C)C [Example 301, 4-((1R,5S)-3,8-diazabicyclo[3.2.1]octan-3-yl)-8-fluoro-2-((hexahydro-1H-pyrrolizin-7a-yl)methoxy)-7-(2-isopropyl-3-methylphenyl)pyrido[4,3-d]pyrimidine] | – | 3170 nM |
| O[C@@H]1C[C@@H]2CN(c3nc(OCCc4ccc(F)cn4)nc4c(F)c(-c5cccc6cccc(Cl)c56)ncc34)C[C@H]1N2 [Example 32, (1R,5R,6R)-3-(7-(8-chloronaphthalen-1-yl)-8-fluoro-2-(2-(5-fluoropyridin-2-yl)ethoxy)pyrido[4,3-d]pyrimidin-4-yl)-3,8-diazabicyclo[3.2.1]octan-6-ol] | – | > 50000 nM |
| c1ccc2c(-c3cc4nc(OCC56CCCN5CCC6)nc(N5C[C@H]6CC[C@@H](C5)N6)c4cn3)cccc2c1 [Example 233, 4-((1R,5S)-3,8-diazabicyclo[3.2.1]octan-3-yl)-7-(naphthalen-1-yl)-2-((tetrahydro-1H-pyrrolizin-7a(5H)-yl)methoxy)pyrido[4,3-d]pyrimidine] | – | 15600 nM |
| Oc1cc(-c2ncc3c(N4C[C@H]5CC[C@@H](C4)N5)nc(OCC(F)(F)C(F)F)nc3c2F)c2ccccc2c1 [Example 52, 4-(4-((1R,5S)-3,8-diazabicyclo[3.2.1]octan-3-yl)-8-fluoro-2-(2,2,3,3-tetrafluoropropoxy)pyrido[4,3-d]pyrimidin-7-yl)naphthalen-2-ol] | – | 8380 nM |

Reference: patent US11453683B1, “KRas G12D inhibitors” (Mirati Therapeutics, Inc., priority 2019, dated 2022)
